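A five-concentration, 48-hour dose response in 96-well plates underlies each endpoint, interpolated linearly between surrounding concentrations. The concentration for 50% growth inhibition is given as GI50.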 Active and inactive are the calls of the source. No stated cut-off is given here; in the data, active = GI50 up to about 1.1 µM and inactive = higher.
Key:
Assay in all cases: NCI tumour cell line growth inhibition, 48 h
A498 = tested on: A498
SK-MEL-28 = tested on: SK-MEL-28
K562 = tested on: K562
SW-620 = tested on: SW-620
HL-60 = tested on: HL-60
SF-268 = tested on: SF-268
NCI-H226 = tested on: NCI-H226
U-251 = tested on: U-251
MOLT-4 = tested on: MOLT-4
HOP-62 = tested on: HOP-62
OVCAR-3 = tested on: OVCAR-3
M14 = tested on: M14
OVCAR-5 = tested on: OVCAR-5
HCT-116 = tested on: HCT-116
OVCAR-4 = tested on: OVCAR-4
SNB-19 = tested on: SNB-19
UACC-62 = tested on: UACC-62
RPMI-8226 = tested on: RPMI-8226
CAKI-1 = tested on: CAKI-1
NCI-H522 = tested on: NCI-H522

Measured: GI50

O=C(Nc1cccc2ccccc12)Oc1ccccc1C1CCCCC1
inactive: A498 17.6 µM | SK-MEL-28 22.6 µM | K562 24.2 µM | SW-620 20.6 µM | HL-60 27.2 µM | SF-268 24.4 µM | NCI-H226 18.2 µM | U-251 13.4 µM | MOLT-4 15.9 µM | HOP-62 19 µM | OVCAR-3 18.6 µM | M14 18.1 µM | OVCAR-5 17.3 µM | HCT-116 17.7 µM | OVCAR-4 16.3 µM | SNB-19 53.6 µM | UACC-62 15.9 µM | RPMI-8226 30.3 µM

C=CCNC(=O)CN(CC(=O)OC)C1CCCCC1N(CC(=O)OC)CC(=O)OC (centres undefined)
inactive: A498 > 100 µM | SK-MEL-28 > 100 µM | K562 > 100 µM | SW-620 > 100 µM | HL-60 > 100 µM | SF-268 > 100 µM | NCI-H226 > 100 µM | CAKI-1 > 100 µM | U-251 > 100 µM | NCI-H522 > 100 µM | MOLT-4 > 100 µM | HOP-62 > 100 µM | OVCAR-3 > 100 µM | M14 > 100 µM | OVCAR-5 > 100 µM | HCT-116 > 100 µM | SNB-19 > 100 µM | UACC-62 > 100 µM | RPMI-8226 > 100 µM

CC(=O)O[C@@H]1CN(S(=O)(=O)c2ccc(C)cc2)C[C@@H]1C1CCCCC1
inactive: A498 20 µM | SK-MEL-28 14.5 µM | K562 45.7 µM | SW-620 20.4 µM | SF-268 16.8 µM | NCI-H226 16.5 µM | CAKI-1 19 µM | U-251 17.7 µM | MOLT-4 25.5 µM | HOP-62 21.9 µM | OVCAR-3 15 µM | M14 15.8 µM | OVCAR-5 26.7 µM | OVCAR-4 50.6 µM | SNB-19 54.8 µM | UACC-62 16.1 µM | RPMI-8226 25.5 µM

O=c1c2cccnc2oc2c(Cl)cc(-c3nnn[nH]3)cc12
inactive: A498 > 100 µM | SK-MEL-28 > 100 µM | K562 > 100 µM | SW-620 > 100 µM | HL-60 > 100 µM | SF-268 > 100 µM | NCI-H226 > 100 µM | CAKI-1 > 100 µM | HOP-62 > 100 µM | OVCAR-3 > 100 µM | M14 > 100 µM | OVCAR-5 > 100 µM | HCT-116 > 100 µM | OVCAR-4 > 100 µM | SNB-19 > 100 µM | UACC-62 > 100 µM

O=C1C(Cl)N(c2ccccc2Cl)C1c1c[nH]c2ccccc12 (centres undefined)
inactive: SK-MEL-28 > 100 µM | K562 > 100 µM | SW-620 > 100 µM | HL-60 > 100 µM | SF-268 > 100 µM | U-251 > 100 µM | NCI-H522 > 100 µM | MOLT-4 > 100 µM | HOP-62 > 100 µM | OVCAR-3 > 100 µM | M14 > 100 µM | HCT-116 > 100 µM | OVCAR-4 > 100 µM | SNB-19 > 100 µM | UACC-62 > 100 µM | RPMI-8226 > 100 µM

CC(C)CNC1=NCC(C)S1 (centres undefined)
inactive: A498 > 100 µM | SK-MEL-28 > 100 µM | K562 > 100 µM | SW-620 > 100 µM | HL-60 > 100 µM | SF-268 74.8 µM | NCI-H226 > 100 µM | CAKI-1 > 100 µM | U-251 > 100 µM | NCI-H522 > 100 µM | MOLT-4 > 100 µM | HOP-62 > 100 µM | OVCAR-3 > 100 µM | M14 > 100 µM | OVCAR-5 > 100 µM | HCT-116 > 100 µM | SNB-19 > 100 µM | UACC-62 > 100 µM | RPMI-8226 > 100 µM

CC(C)(C)OC(=O)NC1CCC(C(C)(C)C)CC1 (centres undefined)
inactive: A498 > 100 µM | SK-MEL-28 > 100 µM | K562 51.1 µM | SW-620 > 64.3 µM | HL-60 15.2 µM | SF-268 > 100 µM | NCI-H226 26.4 µM | U-251 38.4 µM | NCI-H522 85.1 µM | MOLT-4 23.9 µM | HOP-62 > 91 µM | OVCAR-3 58.6 µM | OVCAR-5 > 100 µM | HCT-116 43.1 µM | OVCAR-4 > 74.3 µM | SNB-19 95.7 µM | UACC-62 37.4 µM | RPMI-8226 27.3 µM

O=C(O)CN1CCN(CC(=O)O)CCN(CC(=O)O)CC1
inactive: A498 > 33.6 µM | SK-MEL-28 > 72.1 µM | K562 2.31 µM | SW-620 8.47 µM | HL-60 1.69 µM | SF-268 23.6 µM | CAKI-1 8890 µM | U-251 16.4 µM | NCI-H522 5.22 µM | MOLT-4 4.71 µM | HOP-62 > 100 µM | OVCAR-3 > 94.6 µM | M14 38.3 µM | OVCAR-5 > 32 µM | HCT-116 3.7 µM | OVCAR-4 34.1 µM | SNB-19 > 100 µM | UACC-62 7.98 µM | RPMI-8226 5.36 µM

C=C(/C=C/C=C(\C)CCC=C(C)C)[C@@H]1CC[C@]2([C@H](CCCO)/C(=C(/C)C=O)CC[C@]2(C)O)[C@@H]1O
inactive: SK-MEL-28 15.1 µM | K562 11.2 µM | SW-620 16.3 µM | HL-60 11.5 µM | SF-268 19.2 µM | NCI-H226 24 µM | CAKI-1 28 µM | U-251 14.9 µM | NCI-H522 16.7 µM | MOLT-4 7.62 µM | M14 21.7 µM | OVCAR-5 61.8 µM | SNB-19 22.2 µM

CO[C@H]1ON=C(c2c(C)cc(C)cc2C)[C@@H]1C1(c2ccccc2)ON=C(c2c(C)cc(C)cc2C)O1 (some centres undefined)
inactive: SK-MEL-28 > 100 µM | K562 > 100 µM | SW-620 > 100 µM | HL-60 46.3 µM | SF-268 > 100 µM | U-251 > 100 µM | NCI-H522 > 100 µM | MOLT-4 87.1 µM | OVCAR-5 > 100 µM | HCT-116 > 100 µM | SNB-19 > 100 µM | UACC-62 > 100 µM | RPMI-8226 37.8 µM

Cc1cn(Cc2cn(CC3OC(n4cc(C)c(=O)[nH]c4=O)CC3O)nn2)c(=O)[nH]c1=O (centres undefined)
inactive: A498 > 100 µM | SK-MEL-28 > 100 µM | SW-620 > 100 µM | SF-268 > 100 µM | NCI-H226 > 100 µM | CAKI-1 > 100 µM | U-251 > 100 µM | MOLT-4 > 100 µM | HOP-62 > 100 µM | OVCAR-3 > 100 µM | M14 > 100 µM | OVCAR-5 > 100 µM | HCT-116 > 100 µM | OVCAR-4 > 100 µM | SNB-19 > 100 µM | UACC-62 > 100 µM | RPMI-8226 > 100 µM

Cn1c(=O)c2nc(N3CCCCC3)cnc2n(C)c1=O
inactive: A498 > 100 µM | SK-MEL-28 > 100 µM | K562 > 100 µM | SW-620 > 100 µM | HL-60 > 100 µM | SF-268 > 100 µM | CAKI-1 > 100 µM | U-251 > 100 µM | NCI-H522 > 100 µM | MOLT-4 > 100 µM | HOP-62 > 100 µM | OVCAR-3 > 100 µM | M14 > 100 µM | OVCAR-5 > 100 µM | HCT-116 > 100 µM | OVCAR-4 > 100 µM | SNB-19 > 100 µM | UACC-62 > 100 µM | RPMI-8226 > 100 µM

Source: ChEMBL document CHEMBL1201862, “PubChem BioAssay data set” (2004)
